Reference: paper PMC10782944 (Science immunology, 2023)

How the values were obtained:
10LH = assay: SPR of peptide-loaded HLA-A*24:02 flowed over 10LH-biotin on a streptavidin chip; format: binding; details: peptide loaded on HLA-A*24:02
HLA-B*08:01 = HLA-B*08:01 (Homo sapiens, UniProt P01889, A93T/A95T/D138N/E176V/E187T/K202T/Q94N/R180D/S35A/V36M/Y33D/Y91F); assay: pHLA complex formation of PHOX2B peptide with HLA-B*08:01; details: HLA-B*08:01, despite NetMHCpan 4.1 prediction

Row | Sequence | dissociation rate (qualitative) (10LH) | formation of stable complexes with the HLA (HLA-B*08:01)
1 | LYLPVRVLI [ATG2A] | slow dissociation rate | 
2 | QYNPIRTTF [PHOX2B] |  | did not form stable complexes
